Starred links: 1 amine or outer side, 2 acyl side, 3 side chain; linkers in the order of their positions; H or OH if unused. Positions of bridges follow the written chain, without caps; N, C: chain ends. Non-standard residues stand in square brackets, D forms with d. Residues, ends and D or L forms follow the SMILES beside them. Groups on a side chain read outwards from the residue. *: point of attachment. X3 = CCN1C(=CC=CC=CC2=[N+](CCCCCC(=O)*)c3ccc(S(=O)(=O)[O-])cc3C2(C)C)C(C)(C)c2cc(S(=O)(=O)O)ccc21; X1 = CCN1C(=CC=CC2=[N+](CCCCCC(=O)*)c3ccc(S(=O)(=O)O)cc3C2(C)C)C(C)(C)c2cc(S(=O)(=O)[O-])ccc21; X4 = CCN1C(=CC=CC2=[N+](CCCCCC(=O)*)c3ccc(S(=O)(=O)[O-])cc3C2(C)C)C(C)(C)c2cc(S(=O)(=O)O)ccc21; d(εLys) = N[C@H](CCCCN[*:1])C(=O)[*:2]; PEG5 = NCCOCCOCCOCCOCCOCCC(=O)O; Orn = NCCC[C@H](N)C(=O)O; Mpa = O=C(O)CCS

The Ki is a dissociation constant, usually derived from enzyme kinetics or from competition with a known ligand.

For experiment [1], the target named is T1, hOTR-GFP in HEK293 cells (Homo sapiens, UniProt P30559).
T1 sequence (P30559 1-389): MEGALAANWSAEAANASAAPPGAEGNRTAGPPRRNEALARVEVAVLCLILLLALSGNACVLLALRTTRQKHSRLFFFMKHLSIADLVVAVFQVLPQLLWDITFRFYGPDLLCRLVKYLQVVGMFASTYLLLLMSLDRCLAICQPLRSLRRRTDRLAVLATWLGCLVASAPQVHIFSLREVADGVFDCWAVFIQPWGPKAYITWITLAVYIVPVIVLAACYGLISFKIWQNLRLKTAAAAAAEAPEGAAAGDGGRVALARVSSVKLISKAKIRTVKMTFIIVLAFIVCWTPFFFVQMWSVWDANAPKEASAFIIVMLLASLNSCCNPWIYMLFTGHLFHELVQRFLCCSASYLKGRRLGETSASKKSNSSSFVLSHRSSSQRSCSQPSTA
As to the kind of experiment: Live single-particle tracking (TIRFM, uPAINT) of hOTR.
Protocol: We first exposed hOTR‐GFP cells to 10 and 100 nM of tracer (11) during acquisition with a ZEISS Lattice SIM microscope (Movies S1 and S2). […] To further disentangle the dynamics of our tracer‐mediated OTR engagement and trafficking, we evaluated its applicability in single‐particle tracking (SPT) in living cells. We cultured HEK293 (parent cells) and HEK293 cells stably expressing hOTR‐GFP (HEK293‐hOTR‐GFP) and performed total internal reflection microscopy (TIRFM) SPT universal point accumulation imaging in nanoscale topography (uPAINT) following the addition of 1 nM of tracer (10). […] This concentration was selected to facilitate the detection and tracking of single molecules of the fluorescent agonist tracer following binding to hOTR at the plasma membrane by uPAINT. […] We first assessed the number of tracks (indicative of the number of single molecules detected/tracked). […] We quantified the mean squared displacement of each trajectory to calculate its apparent diffusion coefficient. The diffusion coefficient of each trajectory of the tracer bound to hOTR was plotted as a frequency distribution (Figure 7b2 ).
Live cell imaging. For 3D live cell imaging, attached and serum -starved HEK293-hOTR-GFP cells in 96-well
glass bottom plates were imaged on a ZEISS Lattice SIM Microscope using a 40x oil objective and SIM 2 post- […]

Experiment [2] addresses T1, hOTR-GFP in HEK293 cells. As to the kind of experiment: hOTR-GFP internalization and tracer uptake, confocal microscopy after fixation/ICC. The settings on record: for hOTR-GFP internalization / Tracer retention after ICC protocols: 100 nM; for Tracer retention after ICC protocols: 1 h stimulation, formaldehyde fixation, PBS washing; for Tracer signal after prolonged stimulation: 24 h treatment, post-fixation ICC. Set-up: expressed in transfected cells. It counts as cell-based.
Description: To validate the application scope of our tracers for biological systems and post‐hoc imaging, we used HEK293 cells stably overexpressing human OTR or V1aR, tagged with a C‐terminal fused green fluorescent protein to visualize receptor trafficking (hOTR‐GFP or hV1aR‐GFP, respectively).
subsequently washed with PBS and processed for immunocytochemistry.
Immunocytochemistry and imaging. Unspecific protein binding was quenched with 5% normal donkey serum
(Jackson ImmunoResearch), 2% bovine serum albumin (Sigma-Aldrich, Merck), and 0.2% Triton X-100 (Sigma-
Aldrich, Merck) in PBS. Next, cells were exposed to primary antibody cocktails containing FITC-conjugated goat-
anti-GF (1:2000, Sigma-Aldrich, Merck) and mouse pCREB (1:300, Sigma-Aldrich, Merck) in PBS with 2%
normal donkey serum, 0.1% BSA, and 0.2% Triton X-100 overnight at 4°C. After three PBS washing steps, wells
were incubated with secondary antibody cocktails (1:400, Jackson Immuno Research) containing suitable
were mounted with glycerol gelatin (Sigma-Aldrich, Merck) and imaged on a Zeiss LSM 780/880 confocal
microscope (Zeiss). Images were analyzed and equally contrasted for visualization with ZEN Pro (Zeiss) and

The target in experiment [3] is T2, hOTR (Homo sapiens, UniProt P30559).
T2 construct: expressed in transfected cells
T2 sequence (P30559 1-389): T1 sequence (P30559 1-389)
As to the kind of experiment: Radioligand displacement and saturation binding, membranes of HEK293 cells stably expressing hOTR, [3H]-OT. The settings on record: [3H]-OT; mean ± SD, duplicates, at least three independent experiments; read-out: Ki hOTR. (In general: Displacement assays read how much labelled ligand stays bound in the presence of the test substance.)
Protocol: Membrane preparation for radioligand assays. HEK293 cells were used for stable expression of GFP-tagged
human OTR, V1aR, V1bR, and V2R isoforms and transient expression of murine OTR, V1aR, V1bR, and V2R
isoforms. Cell culture work was performed under sterile conditions with DMEM high glucose containing 10%
FBS, and 50 U/mL P/S. Cells were cultured in 10 cm diameter cell culture dishes at 37°C in a humidified
atmosphere with 5% CO2, and cells were passaged at 70-90% confluency.
medium of stable cell lines at 0.5 mg/mL to sustain selection pressure, and cells were harvested at 90% confluency
for membrane preparation. For transient expression of murine receptors, 60% confluent wild-type HEK293 cells
were transfected using the jetPRIME transfection reagent according to the manufacturer’s protocol and harvested
48 h post-transfection. For membrane preparation, cells were washed with ice-cold PBS pH 7.4, scraped into fresh
PBS on ice, and centrifuged at 4°C and 178 g for 10 min. The pellet was resuspended in a TRIS buffer solution
ice-cold water bath sonicator. The obtained solution was centrifuged for 20 min at 54,192 g and 4°C. The obtained
pellet was resuspended in TRIS buffer without protease inhibitors, homogenized with an ultrasonicator, aliquoted,
and stored at -80°C until further use. A BCA assay was used to determine the protein concentration of the
Radioligand displacement and saturation experiments. Assay solutions consisting of competing ligand,
radioligand, and membrane preparation were incubated for 1 h at 37°C. Standard binding buffer solution (50 mM
TRIS, 5 mM MgCl2, 0.1% BSA, pH 7.4) was used to prepare all dilutions; the final assay volume was 200 µL.
concentrations were 8 μg/vial for hOTR, 5 μg/vial for hV1aR, and 3 μg/vial for hV1bR and hV2R, respectively , and
4 μg/vial for mOTR, 1.5 μg/vial for m V1aR, 3 μg/vial for mV 1bR, and 10 μg/vial for mV 2R. To assess non-specific
Specific binding was determined by
subtraction of the non-specific binding from the total binding. In radioligand displacement experiments, semi -
logarithmically spaced concentrations of respective test ligands were applied to determine K i values based on
assessed Kd values of radiotracers and by fitting the data to a three -parameter logistic Hill equation and applying
the Cheng and Prusoff approximation. 10 In case of human receptors from stable cell lines, Kd and Bmax values were
In case of murine receptors from transient
was performed using GraphPad Prism (version 9.5.1) . After incubation, membranes were filtered and washed on
a Skatron Cell Harvester using polyethyleneimine -coated glass fiber filters (type B, soaked in 0.1% aqueous
1 mM MgCl2, pH 7.4, 4°C). The soaked filter pieces were transferred into counter vials, and 2 mL of scintillation
cocktail (LSC Universalcocktail) was added to each vial. After 1 h incubation at 25°C on a shaker, radioligand
concentration was determined using a Tri -Carb liquid scintillation analyzer.
response curves were obtained from radioligand displacement experiments of membrane preparations of HEK293
Values were normalized to the percentage
of maximum binding (i.e., no competing ligand present). Specific binding was obtained from the subtraction of
non-specific binding from total binding. K i values were derived from one-site-fitted competition binding curves.

`CC[C@H](C)[C@@H]1NC(=O)[C@H](Cc2ccc(O)cc2)NC(=O)CCSSC[C@@H](C(=O)N2CCC[C@H]2C(=O)N[C@@H](CCCNC(=O)[C@@H](CC(=O)O)NC(=O)CCOCCOCCOCCOCCOCCNC(=O)CCCCC[N+]2=C(C=CC=CC=C3N(CC)c4ccc(S(=O)(=O)O)cc4C3(C)C)C(C)(C)c3cc(S(=O)(=O)[O-])ccc32)C(=O)NCC(N)=O)NC(=O)[C@H](CC(N)=O)NC(=O)[C@H](CCC(N)=O)NC1=O` [Compound 10, d(Orn)^8OT‐[d‐PEG5‐Cy5s]^8] ([Mpa]YIQNCP[Orn]([dD-PEG5-X3])G-NH2; disulfide 1-6): the “Average (apparent) diffusion coefficient” value in experiment [1] (1 nM tracer, HEK293-hOTR-GFP, 50 Hz, tracer bound to hOTR, mean ± SEM) amounted to 0.206 ± 0.017 µm^2 s^−1. The “Average number of tracks (per cell)” value in experiment [1] (HEK293-hOTR-GFP cells, N=9 cells, 3 independent experiments) is given as 4884 ± 1718.

As for `CC[C@H](C)[C@@H]1NC(=O)[C@H](Cc2ccc(O)cc2)NC(=O)CCSSC[C@@H](C(=O)N2CCC[C@H]2C(=O)N[C@@H](CCCNC(=O)CCOCCOCCOCCOCCOCCNC(=O)[C@H](N)CCCCNC(=O)CCCCC[N+]2=C(C=CC=CC=C3N(CC)c4ccc(S(=O)(=O)O)cc4C3(C)C)C(C)(C)c3cc(S(=O)(=O)[O-])ccc32)C(=O)NCC(N)=O)NC(=O)[C@H](CC(N)=O)NC(=O)[C@H](CCC(N)=O)NC1=O` [Compound 7, d(Orn)^8OT‐[PEG5‐k^ε‐Cy5s]^8] ([Mpa]YIQNCP[Orn]([PEG5-d(εLys)-X3])G-NH2; disulfide 1-6), in experiment [2], the hOTR-GFP internalization entry is listed as “significant hOTR‐GFP internalization”; the “Tracer retention after ICC protocols” value is “remained present and detectable”; the “Tracer signal after prolonged stimulation” value is “Signal intensity was increased”.

In the case of `CC[C@H](C)[C@@H]1NC(=O)[C@H](Cc2ccc(O)cc2)NC(=O)CCSSC[C@@H](C(=O)N2CCC[C@H]2C(=O)N[C@@H](CCCNC(=O)CCOCCOCCOCCOCCOCCNC(=O)CCOCCOCCOCCOCCOCCNC(=O)[C@H](N)CCCCNC(=O)CCCCC[N+]2=C(C=CC=C3N(CC)c4ccc(S(=O)(=O)O)cc4C3(C)C)C(C)(C)c3cc(S(=O)(=O)[O-])ccc32)C(=O)NCC(N)=O)NC(=O)[C@H](CC(N)=O)NC(=O)[C@H](CCC(N)=O)NC1=O` [Compound 9, d(Orn)^8OT‐[PEG5‐PEG5‐k^ε‐Cy3s]^8] ([Mpa]YIQNCP[Orn]([PEG5-PEG5-d(εLys)-X4])G-NH2; disulfide 1-6), the inhibition constant (Ki) in experiment [3] amounted to 1.5 ± 0.5 nM.

Turning to `CC[C@H](C)[C@@H]1NC(=O)[C@H](Cc2ccc(O)cc2)NC(=O)CCSSC[C@@H](C(=O)N2CCC[C@H]2C(=O)N[C@@H](CCCNC(=O)CCOCCOCCOCCOCCOCCNC(=O)CCCCC[N+]2=C(C=CC=C3N(CC)c4ccc(S(=O)(=O)[O-])cc4C3(C)C)C(C)(C)c3cc(S(=O)(=O)O)ccc32)C(=O)NCC(N)=O)NC(=O)[C@H](CC(N)=O)NC(=O)[C@H](CCC(N)=O)NC1=O` [Compound 4, d(Orn)^8OT‐[PEG5‐Cy3s]^8] ([Mpa]YIQNCP[Orn]([PEG5-X1])G-NH2; disulfide 1-6), in experiment [3], the Ki is 1.5 ± 0.6 nM.

Take `CC[C@H](C)[C@@H]1NC(=O)[C@H](Cc2ccc(O)cc2)NC(=O)CCSSC[C@@H](C(=O)N2CCC[C@H]2C(=O)N[C@@H](CCCNC(=O)CCOCCOCCOCCOCCOCCNC(=O)CCCCC[N+]2=C(C=CC=CC=C3N(CC)c4ccc(S(=O)(=O)O)cc4C3(C)C)C(C)(C)c3cc(S(=O)(=O)[O-])ccc32)C(=O)NCC(N)=O)NC(=O)[C@H](CC(N)=O)NC(=O)[C@H](CCC(N)=O)NC1=O` [Compound 3, d(Orn)^8OT‐[PEG5‐Cy5s]^8] ([Mpa]YIQNCP[Orn]([PEG5-X3])G-NH2; disulfide 1-6): in experiment [2], the hOTR-GFP internalization entry was “significant hOTR‐GFP internalization”, the “Tracer retention after ICC protocols” value is “washout after ICC protocols” and the “Tracer signal after prolonged stimulation” value is listed as “scarcely detectable”.

These data come from article PMC12603982 (Angewandte Chemie (International Ed. in English), 2025).
